Data published in the kinase profiling compilation of Christmann-Franck et al. (2016).

What was measured:
Assay in all cases: radiometric filter-binding kinase assay, Kinase HotSpot
Conditions in all cases: compound 0.5 µM; ATP 10 µM
[1] = biological target: TGFBR2 (human) (UniProt P37173)
[2] = biological target: DCLK2 (human) (UniProt Q8N568)
[3] = biological target: CSNK1D (human) (UniProt P48730)
[4] = biological target: EPHA8 (human) (UniProt P29322)
[5] = biological target: TAOK1 (human) (UniProt Q7L7X3)
[6] = biological target: FGFR1 (human) (UniProt P11362)
[7] = biological target: ZAP70 (human) (UniProt P43403)
[8] = biological target: GRK4 (human) (UniProt P32298)
[9] = biological target: IKBKE (human) (UniProt Q14164)
[10] = biological target: MAPK12 (human) (UniProt P53778)
[11] = biological target: PLK1 (human) (UniProt P53350)
[12] = biological target: FGFR3 (human) (UniProt P22607)
[13] = biological target: BLK (human) (UniProt P51451)
[14] = biological target: STK11 (human) (UniProt Q15831)
[15] = biological target: GSG2 (human) (UniProt Q8TF76)
[16] = biological target: BMX (human) (UniProt P51813)
[17] = biological target: CDK7 CCNH MNAT1 (human) (UniProt P50613+P51948+P51946)
[18] = biological target: NEK7 (human) (UniProt Q8TDX7)
[19] = biological target: PAK4 (human) (UniProt O96013)
[20] = biological target: STK17A (human) (UniProt Q9UEE5)
[21] = biological target: YES1 (human) (UniProt P07947)
[22] = biological target: SGK2 (human) (UniProt Q9HBY8)
[23] = biological target: DDR2 (human) (UniProt Q16832)
[24] = biological target: CDK5 CDK5R1 p25 (human) (UniProt Q00535+Q15078)
[25] = biological target: INSRR (human) (UniProt P14616)
[26] = biological target: PRKCB1 (human) (UniProt P05771)
[27] = biological target: MAPK13 (human) (UniProt O15264)
[28] = biological target: PKN2 (human) (UniProt Q16513)
[29] = biological target: DMPK (human) (UniProt Q09013)
[30] = biological target: PRKCZ (human) (UniProt Q05513)
[31] = biological target: MST4 (human) (UniProt Q9P289)
[32] = biological target: SRC (human) (UniProt P12931)
[33] = biological target: EPHA7 (human) (UniProt Q15375)
[34] = biological target: RPS6KA5 KD2 (human) (UniProt O75582)
[35] = biological target: RPS6KB2 (human) (UniProt Q9UBS0)
[36] = biological target: AKT2 (human) (UniProt P31751)
[37] = biological target: HCK (human) (UniProt P08631)
[38] = biological target: WNK2 (human) (UniProt Q9Y3S1)
[39] = biological target: WEE1 (human) (UniProt P30291)
[40] = biological target: HIPK2 (human) (UniProt Q9H2X6)
[41] = biological target: CDK4 CCND3 (human) (UniProt P30281+P11802)
[42] = biological target: MARK4 (human) (UniProt Q96L34)

PLK1 (human), sequence (P53350 whole entry, looked up): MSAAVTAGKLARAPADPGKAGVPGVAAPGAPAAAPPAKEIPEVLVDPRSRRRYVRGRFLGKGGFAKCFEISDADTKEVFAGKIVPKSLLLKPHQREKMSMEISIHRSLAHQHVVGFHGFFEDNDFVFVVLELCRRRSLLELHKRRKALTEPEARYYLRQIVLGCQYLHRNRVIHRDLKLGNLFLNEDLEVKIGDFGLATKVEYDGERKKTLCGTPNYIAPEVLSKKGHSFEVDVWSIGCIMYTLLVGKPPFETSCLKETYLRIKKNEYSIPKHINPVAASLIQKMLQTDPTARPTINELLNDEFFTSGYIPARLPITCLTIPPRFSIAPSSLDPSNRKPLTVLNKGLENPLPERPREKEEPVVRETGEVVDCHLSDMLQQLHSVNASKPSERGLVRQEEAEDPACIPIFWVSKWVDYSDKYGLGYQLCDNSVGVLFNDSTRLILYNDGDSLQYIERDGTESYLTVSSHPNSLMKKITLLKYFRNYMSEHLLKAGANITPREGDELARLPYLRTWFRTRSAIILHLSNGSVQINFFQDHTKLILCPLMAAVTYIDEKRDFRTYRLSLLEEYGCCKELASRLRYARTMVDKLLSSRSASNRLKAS
SRC (human), sequence (P12931 whole entry, looked up): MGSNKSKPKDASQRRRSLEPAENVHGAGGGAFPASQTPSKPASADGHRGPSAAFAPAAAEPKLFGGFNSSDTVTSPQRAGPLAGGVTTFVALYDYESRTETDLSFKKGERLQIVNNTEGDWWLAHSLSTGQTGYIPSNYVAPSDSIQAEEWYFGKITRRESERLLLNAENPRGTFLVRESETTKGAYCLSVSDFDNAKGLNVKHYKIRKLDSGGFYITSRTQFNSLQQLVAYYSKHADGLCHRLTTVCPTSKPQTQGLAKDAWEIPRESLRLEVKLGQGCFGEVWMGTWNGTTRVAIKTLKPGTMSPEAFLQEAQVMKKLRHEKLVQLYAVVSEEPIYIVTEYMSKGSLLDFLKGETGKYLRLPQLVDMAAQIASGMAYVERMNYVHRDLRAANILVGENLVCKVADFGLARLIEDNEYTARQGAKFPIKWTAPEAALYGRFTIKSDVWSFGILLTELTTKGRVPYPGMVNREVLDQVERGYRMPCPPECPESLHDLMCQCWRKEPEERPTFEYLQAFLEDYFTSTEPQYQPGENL
BMX (human), sequence (P51813 whole entry, looked up): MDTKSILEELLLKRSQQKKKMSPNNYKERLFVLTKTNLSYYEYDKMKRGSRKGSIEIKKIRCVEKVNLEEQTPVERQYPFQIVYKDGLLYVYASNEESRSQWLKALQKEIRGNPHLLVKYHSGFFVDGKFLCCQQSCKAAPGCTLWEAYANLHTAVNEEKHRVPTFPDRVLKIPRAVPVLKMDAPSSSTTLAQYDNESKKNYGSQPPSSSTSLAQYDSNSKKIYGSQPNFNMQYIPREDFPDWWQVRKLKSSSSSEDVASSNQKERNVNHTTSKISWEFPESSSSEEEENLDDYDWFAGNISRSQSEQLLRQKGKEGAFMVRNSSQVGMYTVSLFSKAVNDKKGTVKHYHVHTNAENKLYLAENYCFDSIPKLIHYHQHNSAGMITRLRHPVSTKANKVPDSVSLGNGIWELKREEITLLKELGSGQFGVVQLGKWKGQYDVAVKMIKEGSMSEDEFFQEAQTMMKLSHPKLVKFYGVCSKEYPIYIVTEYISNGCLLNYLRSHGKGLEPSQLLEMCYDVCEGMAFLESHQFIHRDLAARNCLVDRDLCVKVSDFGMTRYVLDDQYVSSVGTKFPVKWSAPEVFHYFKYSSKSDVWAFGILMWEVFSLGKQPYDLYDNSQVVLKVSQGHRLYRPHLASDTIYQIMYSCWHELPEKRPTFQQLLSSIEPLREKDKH
EPHA8 (human), sequence (P29322 whole entry, looked up): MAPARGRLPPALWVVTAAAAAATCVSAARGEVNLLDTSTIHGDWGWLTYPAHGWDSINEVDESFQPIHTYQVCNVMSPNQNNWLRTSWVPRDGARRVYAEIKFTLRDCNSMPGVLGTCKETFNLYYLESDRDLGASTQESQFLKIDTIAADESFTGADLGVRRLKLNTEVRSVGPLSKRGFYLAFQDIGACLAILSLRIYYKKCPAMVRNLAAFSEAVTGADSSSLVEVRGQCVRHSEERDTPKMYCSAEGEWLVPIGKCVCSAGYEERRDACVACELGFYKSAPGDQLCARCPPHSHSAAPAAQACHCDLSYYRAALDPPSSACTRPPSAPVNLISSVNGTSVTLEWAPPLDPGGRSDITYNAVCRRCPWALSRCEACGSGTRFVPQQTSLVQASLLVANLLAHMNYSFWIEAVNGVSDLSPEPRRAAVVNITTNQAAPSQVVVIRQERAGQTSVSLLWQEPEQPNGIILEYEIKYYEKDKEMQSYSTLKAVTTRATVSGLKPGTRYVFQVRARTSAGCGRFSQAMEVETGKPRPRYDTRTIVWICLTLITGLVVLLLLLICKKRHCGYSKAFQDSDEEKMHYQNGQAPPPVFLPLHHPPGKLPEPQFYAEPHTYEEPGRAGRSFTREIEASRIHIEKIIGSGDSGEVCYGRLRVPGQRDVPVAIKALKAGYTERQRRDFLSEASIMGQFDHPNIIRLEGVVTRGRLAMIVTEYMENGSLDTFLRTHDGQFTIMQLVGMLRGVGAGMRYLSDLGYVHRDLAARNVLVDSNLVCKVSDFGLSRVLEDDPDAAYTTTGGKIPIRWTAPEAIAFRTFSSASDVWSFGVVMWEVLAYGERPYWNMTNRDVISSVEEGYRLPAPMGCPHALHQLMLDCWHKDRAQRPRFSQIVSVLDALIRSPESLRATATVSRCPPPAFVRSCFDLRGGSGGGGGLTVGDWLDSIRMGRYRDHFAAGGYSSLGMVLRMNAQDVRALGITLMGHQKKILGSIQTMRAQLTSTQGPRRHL
WEE1 (human), sequence (P30291 whole entry, looked up): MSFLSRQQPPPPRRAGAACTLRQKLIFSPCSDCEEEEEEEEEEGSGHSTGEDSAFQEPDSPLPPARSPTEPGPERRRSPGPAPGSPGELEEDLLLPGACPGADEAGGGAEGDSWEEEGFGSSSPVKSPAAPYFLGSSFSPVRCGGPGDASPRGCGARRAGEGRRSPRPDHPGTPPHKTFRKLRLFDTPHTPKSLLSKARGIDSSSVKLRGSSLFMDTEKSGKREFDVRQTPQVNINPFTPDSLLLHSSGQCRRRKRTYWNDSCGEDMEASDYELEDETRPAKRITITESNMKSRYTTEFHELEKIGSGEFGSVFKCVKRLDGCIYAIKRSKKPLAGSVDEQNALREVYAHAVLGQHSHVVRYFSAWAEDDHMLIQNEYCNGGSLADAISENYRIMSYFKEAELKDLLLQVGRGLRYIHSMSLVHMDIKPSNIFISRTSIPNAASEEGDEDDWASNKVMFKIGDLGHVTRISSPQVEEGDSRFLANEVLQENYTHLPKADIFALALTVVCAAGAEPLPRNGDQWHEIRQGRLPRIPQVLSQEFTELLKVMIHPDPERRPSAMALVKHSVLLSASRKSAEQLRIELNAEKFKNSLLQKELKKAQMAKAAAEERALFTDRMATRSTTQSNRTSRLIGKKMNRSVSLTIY
IKBKE (human), sequence (Q14164 whole entry, looked up): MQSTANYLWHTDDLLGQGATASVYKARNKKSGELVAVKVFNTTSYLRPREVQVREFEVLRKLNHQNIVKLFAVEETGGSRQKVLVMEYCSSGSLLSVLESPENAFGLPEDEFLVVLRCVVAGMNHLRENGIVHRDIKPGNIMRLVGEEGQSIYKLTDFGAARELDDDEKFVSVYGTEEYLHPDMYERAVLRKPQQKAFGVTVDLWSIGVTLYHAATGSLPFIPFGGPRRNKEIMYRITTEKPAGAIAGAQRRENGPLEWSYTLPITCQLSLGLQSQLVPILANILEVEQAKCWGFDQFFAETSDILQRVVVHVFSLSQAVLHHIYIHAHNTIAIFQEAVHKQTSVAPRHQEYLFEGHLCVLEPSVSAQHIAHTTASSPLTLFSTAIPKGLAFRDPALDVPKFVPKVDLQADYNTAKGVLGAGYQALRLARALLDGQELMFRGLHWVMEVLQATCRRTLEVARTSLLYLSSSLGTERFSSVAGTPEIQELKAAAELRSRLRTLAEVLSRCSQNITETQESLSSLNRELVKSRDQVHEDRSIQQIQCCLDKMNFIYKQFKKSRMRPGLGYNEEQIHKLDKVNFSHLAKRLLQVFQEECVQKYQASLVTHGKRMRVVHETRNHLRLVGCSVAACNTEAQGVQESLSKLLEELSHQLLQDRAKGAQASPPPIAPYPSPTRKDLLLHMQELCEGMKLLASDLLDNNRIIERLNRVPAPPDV
YES1 (human), sequence (P07947 whole entry, looked up): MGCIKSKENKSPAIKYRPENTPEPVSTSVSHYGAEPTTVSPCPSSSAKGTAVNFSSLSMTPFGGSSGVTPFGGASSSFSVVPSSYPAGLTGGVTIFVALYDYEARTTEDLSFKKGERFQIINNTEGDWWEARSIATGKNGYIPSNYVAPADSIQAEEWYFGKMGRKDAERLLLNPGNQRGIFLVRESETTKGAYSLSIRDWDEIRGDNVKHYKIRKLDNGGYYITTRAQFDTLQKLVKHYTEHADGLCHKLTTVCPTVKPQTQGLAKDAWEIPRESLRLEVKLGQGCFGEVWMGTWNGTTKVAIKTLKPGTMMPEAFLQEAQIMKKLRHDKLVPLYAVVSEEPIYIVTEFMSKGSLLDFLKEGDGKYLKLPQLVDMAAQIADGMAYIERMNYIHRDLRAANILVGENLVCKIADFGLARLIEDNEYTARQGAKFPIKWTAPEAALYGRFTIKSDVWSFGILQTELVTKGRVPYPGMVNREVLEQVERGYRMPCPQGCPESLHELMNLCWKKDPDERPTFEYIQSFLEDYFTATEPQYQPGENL
NEK7 (human), sequence (Q8TDX7 whole entry, looked up): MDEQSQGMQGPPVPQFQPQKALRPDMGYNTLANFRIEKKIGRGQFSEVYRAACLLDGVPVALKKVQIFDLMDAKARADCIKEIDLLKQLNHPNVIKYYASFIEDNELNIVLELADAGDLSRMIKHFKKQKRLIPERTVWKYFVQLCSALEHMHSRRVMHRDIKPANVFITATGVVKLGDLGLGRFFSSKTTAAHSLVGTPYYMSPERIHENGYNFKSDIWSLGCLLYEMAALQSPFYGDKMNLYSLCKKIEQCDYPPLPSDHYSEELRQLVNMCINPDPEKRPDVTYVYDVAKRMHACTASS

SMILES: O=C(Nc1cccc(Nc2nccc(Nc3cccc(C(F)(F)F)c3)n2)c1)C1CC1
- residual activity [1]: 91.6%
- residual activity [2]: 97.4%
- residual activity [3]: 111%
- residual activity [4]: 96.3%
- residual activity [5]: 97.9%
- residual activity [6]: 99.6%
- residual activity [7]: 126%
- residual activity [8]: 96.9%
- residual activity [9]: 97.5%
- residual activity [10]: 99.7%
- residual activity [11]: 91.7%
- residual activity [12]: 95%
- residual activity [13]: 99.8%
- residual activity [14]: 82.8%
- residual activity [15]: 101%
- residual activity [16]: 83.6%
- residual activity [17]: 92.6%
- residual activity [18]: 116%
- residual activity [19]: 87.4%
- residual activity [20]: 97.6%
- residual activity [21]: 78.9%
- residual activity [22]: 118%
- residual activity [23]: 81.7%
- residual activity [24]: 99%
- residual activity [25]: 89.9%
- residual activity [26]: 94.7%
- residual activity [27]: 99.6%
- residual activity [28]: 89.5%
- residual activity [29]: 101%
- residual activity [30]: 98.8%
- residual activity [31]: 84.4%
- residual activity [32]: 64.5%
- residual activity [33]: 112%
- residual activity [34]: 101%
- residual activity [35]: 96%
- residual activity [36]: 107%
- residual activity [37]: 102%
- residual activity [38]: 122%
- residual activity [39]: 95.6%
- residual activity [40]: 103%
- residual activity [41]: 103%
- residual activity [42]: 108%

SMILES: O=C1Nc2ccc(Cl)cc2/C1=C/c1cc(Cl)c(O)c(Cl)c1
- residual activity [1]: 94.9%
- residual activity [2]: 98%
- residual activity [3]: 89.6%
- residual activity [4]: 91.5%
- residual activity [5]: 71.6%
- residual activity [6]: 90.8%
- residual activity [7]: 95%
- residual activity [8]: 108%
- residual activity [9]: 94.7%
- residual activity [10]: 90.5%
- residual activity [11]: 99.8%
- residual activity [12]: 94%
- residual activity [13]: 102%
- residual activity [14]: 93.1%
- residual activity [15]: 8.65%
- residual activity [16]: 94.8%
- residual activity [17]: 96.7%
- residual activity [18]: 100%
- residual activity [19]: 88.7%
- residual activity [20]: 78.9%
- residual activity [21]: 78.3%
- residual activity [22]: 89.2%
- residual activity [23]: 85.8%
- residual activity [24]: 82.6%
- residual activity [25]: 100%
- residual activity [26]: 97.3%
- residual activity [27]: 97.8%
- residual activity [28]: 114%
- residual activity [29]: 112%
- residual activity [30]: 95.3%
- residual activity [31]: 101%
- residual activity [32]: 96.2%
- residual activity [33]: 97.5%
- residual activity [34]: 86.1%
- residual activity [35]: 98.2%
- residual activity [36]: 93.9%
- residual activity [37]: 83.2%
- residual activity [38]: 115%
- residual activity [39]: 79.1%
- residual activity [40]: 122%
- residual activity [41]: 94.8%
- residual activity [42]: 78.4%

SMILES: Cc1[nH]c(/C=C2\C(=O)Nc3ccc(S(=O)(=O)N(C)c4cccc(Cl)c4)cc32)c(C)c1C(=O)N1CCN(C)CC1
- residual activity [1]: 127%
- residual activity [2]: 90.4%
- residual activity [3]: 83.5%
- residual activity [4]: 91.7%
- residual activity [5]: 41.9%
- residual activity [6]: 80%
- residual activity [7]: 94.4%
- residual activity [8]: 103%
- residual activity [9]: 74.2%
- residual activity [10]: 99.8%
- residual activity [11]: 96.9%
- residual activity [12]: 74.1%
- residual activity [13]: 51.7%
- residual activity [14]: 89.9%
- residual activity [15]: 102%
- residual activity [16]: 97.3%
- residual activity [17]: 59.7%
- residual activity [18]: 90.3%
- residual activity [19]: 101%
- residual activity [20]: 97%
- residual activity [21]: 27%
- residual activity [22]: 103%
- residual activity [23]: 105%
- residual activity [24]: 82%
- residual activity [25]: 93%
- residual activity [26]: 94%
- residual activity [27]: 100%
- residual activity [28]: 85.4%
- residual activity [29]: 113%
- residual activity [30]: 94.5%
- residual activity [31]: 63.5%
- residual activity [32]: 53.3%
- residual activity [33]: 85.8%
- residual activity [34]: 94.1%
- residual activity [35]: 98.4%
- residual activity [36]: 102%
- residual activity [37]: 63.5%
- residual activity [38]: 112%
- residual activity [39]: 81.8%
- residual activity [40]: 105%
- residual activity [41]: 101%
- residual activity [42]: 36.2%
